In ChEMBL document CHEMBL1201862, “PubChem BioAssay data set” (2004):
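Interpolation was linear, between the two tested concentrations surrounding the appropriate level; five concentrations were tested over 48 hours in 96-well plates. GI50 marks 50% less growth.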 The source made the active and inactive calls. No stated cut-off is given here; in the data, active = GI50 up to about 1.1 µM and inactive = higher.

Columns and labels:
Assay in all cases: inhibition of tumour cell growth, NCI panel, 48 h
SK-MEL-28 = test system: SK-MEL-28
SN12C = test system: SN12C
T47D = test system: T47D
SK-MEL-2 = test system: SK-MEL-2
MDA-N = test system: MDA-N
SK-MEL-5 = test system: SK-MEL-5
A549 = test system: A549
CAKI-1 = test system: CAKI-1
IGROV-1 = test system: IGROV-1
SW-620 = test system: SW-620
HL-60 = test system: HL-60
UO-31 = test system: UO-31
786-0 = test system: 786-0
SF-268 = test system: SF-268
HCT-15 = test system: HCT-15
SNB-19 = test system: SNB-19
SR = test system: SR
NCI-H226 = test system: NCI-H226
A498 = test system: A498

Row | Compound | GI50 (SK-MEL-28) | GI50 (SN12C) | GI50 (T47D) | GI50 (SK-MEL-2) | GI50 (MDA-N) | GI50 (SK-MEL-5) | GI50 (A549) | GI50 (CAKI-1) | GI50 (IGROV-1) | GI50 (SW-620) | GI50 (HL-60) | GI50 (UO-31) | GI50 (786-0) | GI50 (SF-268) | GI50 (HCT-15) [µM] | GI50 (SNB-19) | GI50 (SR) | GI50 (NCI-H226) | GI50 (A498)
1 | O=C(O)[C@H]1CCCN1CP(=O)(O)CN1CCC[C@@H]1C(=O)O | > 100 µM (inactive) | > 100 µM (inactive) | > 100 µM (inactive) | > 100 µM (inactive) | > 100 µM (inactive) | > 100 µM (inactive) | > 100 µM (inactive) | > 100 µM (inactive) | > 100 µM (inactive) | > 100 µM (inactive) | > 100 µM (inactive) | > 100 µM (inactive) | > 100 µM (inactive) | > 100 µM (inactive) | > 100 | > 100 µM (inactive) | – | – | –
2 | CC(C(=O)NCNC(=O)c1ccccc1)C(=O)NCc1ccccc1 (stereo not given) | – | > 100 µM (inactive) | > 100 µM (inactive) | > 100 µM (inactive) | > 100 µM (inactive) | > 100 µM (inactive) | > 100 µM (inactive) | > 100 µM (inactive) | > 100 µM (inactive) | > 100 µM (inactive) | > 100 µM (inactive) | > 100 µM (inactive) | > 100 µM (inactive) | > 100 µM (inactive) | > 100 | > 100 µM (inactive) | > 100 µM (inactive) | > 100 µM (inactive) | –
3 | O=C1Nc2nccnc2C(=O)N2CCC[C@@H]12 | > 100 µM (inactive) | > 100 µM (inactive) | > 100 µM (inactive) | > 100 µM (inactive) | > 100 µM (inactive) | > 100 µM (inactive) | > 100 µM (inactive) | > 100 µM (inactive) | > 100 µM (inactive) | > 100 µM (inactive) | > 100 µM (inactive) | > 100 µM (inactive) | > 100 µM (inactive) | > 100 µM (inactive) | > 100 | > 100 µM (inactive) | > 100 µM (inactive) | > 100 µM (inactive) | –
4 | O=C1CCC(=O)N1n1c(Cc2ccc(Cl)cc2)n[nH]c1=O | > 100 µM (inactive) | > 100 µM (inactive) | > 100 µM (inactive) | > 100 µM (inactive) | > 100 µM (inactive) | > 100 µM (inactive) | > 100 µM (inactive) | > 100 µM (inactive) | > 100 µM (inactive) | > 100 µM (inactive) | > 100 µM (inactive) | > 100 µM (inactive) | > 100 µM (inactive) | > 100 µM (inactive) | > 100 | > 100 µM (inactive) | – | > 100 µM (inactive) | > 100 µM (inactive)
5 | Oc1c(-c2ccccc2)sc2ccccc12 | 68.9 µM (inactive) | – | 11 µM (inactive) | 10.8 µM (inactive) | – | 16.7 µM (inactive) | 31.9 µM (inactive) | 0.836 µM (active) | 27.5 µM (inactive) | 48.3 µM (inactive) | 22.6 µM (inactive) | 24.9 µM (inactive) | 22.4 µM (inactive) | 60.7 µM (inactive) | 31.9 | 34.3 µM (inactive) | 7.5 µM (inactive) | 16.4 µM (inactive) | 31.4 µM (inactive)
6 | NNC(=O)c1cccc2c1Oc1ccccc1S2 | > 100 µM (inactive) | – | 95.1 µM (inactive) | > 100 µM (inactive) | – | > 100 µM (inactive) | – | > 100 µM (inactive) | > 100 µM (inactive) | > 100 µM (inactive) | 79.6 µM (inactive) | > 100 µM (inactive) | > 100 µM (inactive) | 76.2 µM (inactive) | > 100 | > 100 µM (inactive) | > 100 µM (inactive) | 1.23 µM (inactive) | 18.2 µM (inactive)
7 | Cc1ccc([S+]([O-])/C=C(\NC(=O)OCc2ccccc2)C(F)(F)F)cc1 (stereo not given) | 22.1 µM (inactive) | 45.4 µM (inactive) | 39.7 µM (inactive) | 32.4 µM (inactive) | 38.6 µM (inactive) | 60.4 µM (inactive) | 41 µM (inactive) | 42 µM (inactive) | 45.3 µM (inactive) | 19.3 µM (inactive) | 18 µM (inactive) | 21.9 µM (inactive) | 53.3 µM (inactive) | – | 33.4 | 29.3 µM (inactive) | 30.4 µM (inactive) | 34.4 µM (inactive) | –
8 | N#CCCN(CCN(C(=O)Nc1ccccc1)c1ccccc1)C(=O)Nc1ccccc1 | > 91.6 µM (inactive) | – | > 35.1 µM (inactive) | > 100 µM (inactive) | – | 60.7 µM (inactive) | 58.2 µM (inactive) | > 43 µM (inactive) | 76.7 µM (inactive) | > 100 µM (inactive) | 13 µM (inactive) | 31.2 µM (inactive) | > 100 µM (inactive) | > 100 µM (inactive) | > 81.5 | > 57.3 µM (inactive) | 42 µM (inactive) | 79.4 µM (inactive) | > 100 µM (inactive)
9 | Cc1ccc2c(/C=C/c3ccc(N(C)C)cc3)ccnc2c1C | 17.1 µM (inactive) | 20.6 µM (inactive) | 21.1 µM (inactive) | – | 3.99 µM (inactive) | 18.2 µM (inactive) | 49.8 µM (inactive) | 27.4 µM (inactive) | – | 20.4 µM (inactive) | 21.2 µM (inactive) | 19.3 µM (inactive) | 27.4 µM (inactive) | 30.1 µM (inactive) | 12.8 | > 100 µM (inactive) | – | 30.5 µM (inactive) | > 100 µM (inactive)
10 | CCOC(=O)C1=C(C)NC(C)=C(C(=O)OCC)C1c1ccc(Cl)cc1 | 20.4 µM (inactive) | 19.4 µM (inactive) | 15.6 µM (inactive) | 18.7 µM (inactive) | 13.2 µM (inactive) | 13.7 µM (inactive) | 15.4 µM (inactive) | 16.5 µM (inactive) | 15.1 µM (inactive) | 16.3 µM (inactive) | 0.774 µM (active) | 20.3 µM (inactive) | 13 µM (inactive) | 17.5 µM (inactive) | 16.6 | 16.7 µM (inactive) | – | – | 16.4 µM (inactive)
11 | c1ccc2c(c1)CCN(C1=NCCO1)C2 | > 10 µM (inactive) | > 10 µM (inactive) | > 10 µM (inactive) | > 10 µM (inactive) | > 10 µM (inactive) | > 10 µM (inactive) | > 10 µM (inactive) | > 10 µM (inactive) | > 10 µM (inactive) | > 10 µM (inactive) | > 10 µM (inactive) | > 10 µM (inactive) | > 10 µM (inactive) | > 10 µM (inactive) | > 10 | > 10 µM (inactive) | – | > 10 µM (inactive) | > 10 µM (inactive)
12 | COc1ccc(C2c3c(-c4ccccc4)nn(-c4ccccc4)c3Oc3ncn(N)c(=N)c32)cc1OC (stereo not given) | 2 µM (inactive) | 2.51 µM (inactive) | 1.97 µM (inactive) | 1.83 µM (inactive) | – | 1.94 µM (inactive) | 2.24 µM (inactive) | 1.86 µM (inactive) | 1.51 µM (inactive) | 2.9 µM (inactive) | 2.62 µM (inactive) | 1.68 µM (inactive) | 1.67 µM (inactive) | 3.03 µM (inactive) | 1.84 | 2.83 µM (inactive) | 3.53 µM (inactive) | 2.46 µM (inactive) | 7.16 µM (inactive)
13 | COc1ccc(/C=N/n2c(Cc3ccccc3)n[nH]c2=O)cc1 | > 100 µM (inactive) | > 100 µM (inactive) | > 100 µM (inactive) | > 100 µM (inactive) | > 100 µM (inactive) | – | > 100 µM (inactive) | > 100 µM (inactive) | – | > 100 µM (inactive) | – | > 100 µM (inactive) | > 100 µM (inactive) | 42.3 µM (inactive) | > 100 | 70.6 µM (inactive) | – | > 100 µM (inactive) | 32.4 µM (inactive)
14 | Cc1ccc(N2C(=O)C3c4[nH]c5ccc(C)cc5c4C4CCC(C(C)(C)C)CC4C3C2=O)cc1 (stereo not given) | 22.4 µM (inactive) | 12.6 µM (inactive) | 7.5 µM (inactive) | 35.8 µM (inactive) | 21 µM (inactive) | 32.1 µM (inactive) | 13.6 µM (inactive) | 17.6 µM (inactive) | 13.1 µM (inactive) | 12.1 µM (inactive) | 17.3 µM (inactive) | 37.9 µM (inactive) | 4.9 µM (inactive) | 11.9 µM (inactive) | 49.8 | 26.5 µM (inactive) | – | 21.6 µM (inactive) | –
15 | O=c1c(C(c2ccc3c(c2)Cc2ccccc2-3)c2c(O)oc3ccccc3c2=O)c(O)oc2ccccc12 | 22.5 µM (inactive) | 20.4 µM (inactive) | 41.5 µM (inactive) | 31.9 µM (inactive) | 19.9 µM (inactive) | 24.5 µM (inactive) | 19.5 µM (inactive) | 20.3 µM (inactive) | 39.3 µM (inactive) | 29.8 µM (inactive) | 29.2 µM (inactive) | 16.7 µM (inactive) | 25.9 µM (inactive) | 23.9 µM (inactive) | 22.2 | 47.1 µM (inactive) | – | > 100 µM (inactive) | 38.5 µM (inactive)
16 | Nc1ccc2nc3c(nc2c1)C(=O)c1ccccc1-3 | > 100 µM (inactive) | > 100 µM (inactive) | > 100 µM (inactive) | – | > 100 µM (inactive) | > 100 µM (inactive) | > 100 µM (inactive) | – | > 100 µM (inactive) | > 100 µM (inactive) | > 100 µM (inactive) | – | 75 µM (inactive) | > 100 µM (inactive) | > 100 | > 100 µM (inactive) | > 10 µM (inactive) | 29 µM (inactive) | –
